Values of other authors as cited in patent US20070231312A1, “NUTRITIONAL SUPPLEMENT FOR PREGNANT FEMALES” (priority 2006, published 2007).
Values belong to the compound of their own block, whether it stands above or below them.

Columns and labels:
primigravida women = details: 2 mg. twice daily beginning at 16-20 wks; placebo 17.7%, P<0.05
[1] = supplementation in pregnancy
[2] = test system: women at high risk for developing preeclampsia; details: treatment group; 1000 μg. per day for 6 to 8 weeks during late gestation; placebo 22.7%
[3] = test system: oxidative mitochondrial damage; details: in vitro studies, ischemia reperfusion model
glutathione peroxidase = details: placental homogenates from late human gestation

SMILES: CC(C)=CCC/C(C)=C/C=C/C(C)=C/C=C/C(C)=C/C=C/C=C(C)/C=C/C=C(C)/C=C/C=C(\C)CCC=C(C)C [lycopene, Lycopene]
- women developing preeclampsia (primigravida women): 8.6%

- level in maternal serum [1]: increase
SMILES: CC1=C(/C=C/C(C)=C/C=C/C(C)=C/C=C/C=C(C)/C=C/C=C(C)/C=C/C2=C(C)CCCC2(C)C)C(C)(C)CCC1 [beta-carotene]

SMILES: [Se] [Selenium]
- incidence of pregnancy-induced hypertension [2]: 7.7%

- glutathione peroxidase activity (glutathione peroxidase): reduction
SMILES: COc1ccc2[nH]cc(CCNC(C)=O)c2c1 [melatonin, Melatonin]
- protection against oxidative mitochondrial damage [3]: protects against oxidative mitochondrial damage

SMILES: COC(=O)[C@@H](N)CCCNC(=N)N[N+](=O)[O-] [L-NAME, N^G-nitro-L-arginine methyl ester]
- effects on blood pressure, fetal growth and proteinuria (pregnant rats): elevated blood pressure, fetal retarded growth and proteinuria
